Results on 11 compounds are retold here after US20120316138A1, “PPAR-SPARING THIAZOLIDINEDIONES AND COMBINATIONS FOR THE TREATMENT OF OBESITY AND OTHER METABOLIC DISEASES” (METABOLIC SOLUTIONS DEVELOPMENT COMPANY, LLC, priority 2009, published 2012).

The nature of data set [1]: AUC of compound related materials after oral dosing of Compound G forms. The data set is classed as in vivo. Particulars: cynomolgus monkeys, 250 mg free acid equivalents, formulated tablets. The protocol:
Referring to FIG. 9, the area under the curve (AUC) of compound related materials was compared following dosing of 250 mg of Compound G as powder in capsules of free acid (PIC), formulated tablets of micronized free acid, or formulated tablets of the Na or K salt of […] given at the same free acid equivalents. (N=4 cynomolgus monkeys). The formulated, compressed tablet also contained in each case approximately 40.5% lactose, 16.8% microcrystalline cellulose, 1.9% Croscarmellose sodium, 0.5% colloidal silicon dioxide, and 0.9% magnesium stearate.

Another data set concerns PGC-1α. The experiment in a line: Expression of PGC-1α mRNA in precursor BAT cells with norepinephrine (quantitative PCR). The data set is classed as cell-based, mice. Particulars: for PGC-1α message (mRNA): 3 μM compound for seven days, then 1 μM norepinephrine for 2 hours. The protocol:
Another example of the ability of augmented signaling between cyclic nucleotides and compounds of Formula I is shown by the effect on expression of PGC-1α, a known regulator of mitochondrial biogenesis. Increased numbers of mitochondria are predictive of utility for the reduction of body weight.
Precursor BAT cells were isolated as described above and treated with or without 3 μM compounds: 1.] Compound A: 5-(4-(2-(5-ethylpyridin-2-yl)-2-oxoethoxy)benzyl)-1,3-thiazolidine-2,4-dione; 2.] Compound F: 5-((4-(2R)-2-(5-ethylpyridin-2-yl)-2-hydroxyethoxyl)benzyl)-1,3-thiazolidine-2,4-dione; or 3.] Compound G: 5-(4-(2-(3-methoxyphenyl)-2-oxoethoxy)benzyl)-1,3-thiazolidine-2,4-dione for seven days followed by treatment with 1 μM norepinephrine for 2 hours. Total RNA was isolated from the cells and the RNA message (mRNA) for PGC-1α was measured by quantitative polymerase chain reactions.

In data set [2] the test system is brown adipose tissue precursor cells (UCP1). In words: BAT differentiation: UCP1 protein by Western blot in BAT precursor cells. The data set is classed as cell-based, mice. Particulars: 7 days. The protocol: Precursors of BAT are isolated from the interscapular adipose pad of either normal or diabetic mice and cultured in vitro as described below based on the modifications recited in Petrovic N, Shabalina I G, Timmons J A, Cannon B, Nedergaard J. Am. J. Physiol. Endocrinol. Metab. 295:E287-E296, 2008, hereby incorporated by reference.
The brown fat pads are pooled and minced, digested for 45 minutes in isolation buffer containing 0.15% (wt/vol) collagenase. The cell suspension is filtered through a 100 un nylon filter and centrifuged at 200×g for 5 minutes. The pellet containing the preadipocytes is resuspended in 1.2 ml/animal of DMEM containing 10% FBS, 10 mM HEPES, 25 μg/ml sodium ascorbate, 100 U/ml penicillin, and 100 μg/ml streptomycin. The resuspended preadipocytes are distributed into 6 well plates and grown at 37° C. in an atmosphere of 10% CO2 in air with 80% humidity. The medium is changed on the first day and then every second day until confluent.
Cells are then treated with the compounds, compound salts, or co-crystals thereof being assayed for BAT differentiation. This treatment can occur simultaneously with, after, or before strategies to increase intracellular cyclic nucleotides. The development of the BAT phenotype is assessed by direct measure of the uncoupling protein 1 (UCP1), which is emblematic of brown adipose cells.
Following treatment of the cells, the growth medium is aspirated, rinsed with PBS, and lysed with KHM buffer containing 1% Igepal CA-630, and a protease inhibitor cocktail. The lysate is centrifuged at 8,000×g for 5 minutes (4° C.), the supernatant containing the cell lysate is collected and total protein analyzed using the BCA method. 20 μg/lane of cell lysate is run on 10-20% Tris glycine gels under reducing conditions and the proteins transferred to PVDF membranes. Western blotting is conducted using UCP1 polyclonal 1° antibody, an HRP conjugated 2° antibody, and imaged using enhanced chemiluminescence reagents and imaging film. Densitometry is conducted on the scanned films using ImageJ software and analyzed using GraphPad Prism software.

Data set [3] is described as follows: Bioavailability of sodium salt of Compound A, oral capsule versus iv injection. The data set is classed as in vivo. Particulars: male cynomolgus monkeys, oral gavage, 90 mg free base equivalents in capsules, absolute availability versus iv. The protocol: The monkeys fasted overnight and were dosed by oral gavage washed down with 10 ml tap water. Blood samples were taken at 0.25, 0.5, 1, 2, 3, 4, 6, 9, 12, 24, and 48 hours after a single dosage was administered and assayed for drug related materials with a LCMS assay using an internal standard. 90 mg of drug was put in 00 gelatin capsules containing 90 mg of free base equivalents. This was compared to an iv injection of 2 ml/kg and 45 mg of free base solution in 50% hydroxypropyl b-cyclodextran. The absolute availability versus an iv injection was determined for both parent compound and major metabolite.

A further data set relates to diabetic KKAy mouse. The experiment in a line: Blood glucose lowering in the diabetic KKAy mouse. The data set is classed as in vivo. Particulars: diabetic KKAy mice, gavage once daily, glucose measured after 4 daily doses. The protocol:
In these experiments, free base or sodium salt was given to diabetic KKAy mice (N=6) and blood glucose was measured after 4 days of daily treatment at the doses indicated. KKAy mice, 8-12 weeks of age, were given the doses of the compounds according to the dosages on the X axis of FIG. 10. The compounds were given by gavage once daily at […]. On the fifth day (after 4 daily doses at the levels show) a blood sample was taken to measure plasma glucose.

As to `COc1cccc(C(=O)COc2ccc(CC3SC(=O)[N-]C3=O)cc2)c1.[Na+]` (centres unmarked) [sodium salt of Compound G, Sodium 5-{4-[2-(3-methoxyphenyl)-2-oxoethoxy]benztl}-2,4-dioxo-1,3-thiazolidin-3-ide], in data set [1], the “bioavailability (AUC of compound related materials) versus free acid counterparts” value is on record as “significantly higher bioavailability”.
`CCc1ccc([C@@H](O)COc2ccc(CC3SC(=O)NC3=O)cc2)nc1` (stereo partly drawn) [Compound F, 5-((4-(2R)-2-(5-ethylpyridin-2-yl)-2-hydroxyethoxyl)benzyl)-1,3-thiazolidine-2,4-dione]: in the data set with PGC-1α, the “PGC-1α message (mRNA)” value was “an increase in PGC-1α message was observed”.
Take `COc1cccc([C@@H](F)COc2ccc(CC3SC(=O)NC3=O)cc2)c1` (stereo partly drawn) [Compound C, 5-(4-((R)-2-fluoro-2-(3-methoxyphenyl)ethoxy)benzyl)thiazolidine-2,4-dione]: in data set [2] (0.1 to 3 μM), the “amount of UCP1 (Western blot)” value is “dose-dependent increase”.
The same measure, in the same setting: under `COc1cccc([C@H](F)COc2ccc(CC3SC(=O)NC3=O)cc2)c1` (stereo partly drawn) [Compound B, 5-(4-((S)-2-fluoro-2-(3-methoxyphenyl)ethoxy)benzyl)thiazolidine-2,4-dione] stands “dose-dependent increase”.
`CCc1ccc(C(=O)COc2ccc(CC3SC(=O)NC3=O)cc2)nc1` (centres unmarked) [Compound A, 5-{4-[2-(5-ethylpyridin-2-yl)-2-oxoethoxy]benzyl}-1,3-thiazolidine-2,4-dione]: the “amount of UCP1 (Western blot)” value in data set [2] (0.1 to 10 μM) is recorded as “dose-dependent increase”. For the same compound, the “PGC-1α message (mRNA)” value in the data set with PGC-1α is “an increase in PGC-1α message was observed”.
Regarding `COc1cccc(C(=O)COc2ccc(CC3SC(=O)[N-]C3=O)cc2)c1.[K+]` (centres unmarked) [potassium salt of Compound G, Potassium 5-{4-[2-(3-methoxyphenyl)-2-oxoethoxy]benzyl}-2,4-dioxo-1,3-thiazolidin-3-ide], the “bioavailability (AUC of compound related materials) versus free acid counterparts” value in data set [1] is “significantly higher bioavailability”.
Consider `COc1cccc(C(=O)COc2ccc(CC3SC(=O)NC3=O)cc2)c1` (centres unmarked) [Compound G, 5-{4-[2-(3-methoxyphenyl)-2-oxoethoxy]benzyl}-1,3-thiazolidine-2,4-dione], for which the “PGC-1α message (mRNA)” value in the data set on PGC-1α is on record as “an increase in PGC-1α message was observed”.
For `CCc1ccc([C@@H](F)COc2ccc(CC3SC(=O)NC3=O)cc2)nc1` (stereo partly drawn) [Compound E, 5-(4-((R)-2-(5-ethylpyridin-2-yl)-2-fluoroethoxy)benzyl)thiazolidine-2,4-dione], the “amount of UCP1 (Western blot)” value in data set [2] (3 to 10 μM) was “dose-dependent increase”.
Consider `NC[C@H](O)c1ccc(O)c(O)c1` [norepinephrine, reference compound], for which the “PGC-1α mRNA” value in the data set with PGC-1α (norepinephrine alone, 1 μM for 2 hours, absence of compound (control)) is “did not produce an increase”.
With `CCc1ccc(C(=O)COc2ccc(CC3SC(=O)[N-]C3=O)cc2)nc1.[Na+]` (centres unmarked) [sodium salt of Compound A, Sodium 5-{4-[2-(5-ethylpyridin-2-yl)-2-oxoethoxy]benztl}-2,4-dioxo-1,3-thiazolidin-3-ide], in data set [3], the “bioavailability of major metabolite versus free base counterpart” value is reported as “significantly higher bioavailability” and the “bioavailability of parent compound versus free base counterpart” value is recorded as “significantly higher bioavailability”. Besides, the lowering blood glucose result in the data set with diabetic KKAy mouse is “excellent dose response”.
For `CCc1ccc([C@H](F)COc2ccc(CC3SC(=O)NC3=O)cc2)nc1` (stereo partly drawn) [Compound D, 5-(4-((S)-2-(5-ethylpyridin-2-yl)-2-fluoroethoxy)benzyl)thiazolidine-2,4-dione], the “amount of UCP1 (Western blot)” value in data set [2] (3 to 10 μM) is listed as “dose-dependent increase”.
